Measured values taken from patent US9567302B2, “Carbamate compounds and of making and using same” (Abide Therapeutics, Inc., priority 2012, dated 2017).

Columns and labels:
Assay type in all cases: biochemical
Set-up in all cases: from tissue; host or cells: mouse brain membrane fraction
ABHD6 = biological target: T1, ABHD6 (Mus musculus, UniProt Q8R2Y0); experiment: In vitro competitive activity-based protein profiling (FP-Rh), mouse ABHD6; settings: Table 1, mouse proteome, 30 min preincubation at 37° C.
T1 sequence (Q8R2Y0 1-336): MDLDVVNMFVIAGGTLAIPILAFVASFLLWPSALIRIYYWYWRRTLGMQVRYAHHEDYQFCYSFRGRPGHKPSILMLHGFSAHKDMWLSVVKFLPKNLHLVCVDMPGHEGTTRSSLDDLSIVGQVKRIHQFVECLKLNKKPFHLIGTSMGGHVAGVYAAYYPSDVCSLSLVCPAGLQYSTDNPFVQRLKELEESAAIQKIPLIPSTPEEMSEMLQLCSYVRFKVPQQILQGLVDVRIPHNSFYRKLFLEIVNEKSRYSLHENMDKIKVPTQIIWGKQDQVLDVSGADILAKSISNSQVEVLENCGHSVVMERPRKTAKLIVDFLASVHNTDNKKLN
Experimental: (§1) In Vitro Competitive Activity-Based Protein Profiling.
(§2) Proteomes (mouse brain membrane fraction or cell lysates) (50 μL, 1.0 mg/ml total protein concentration) were preincubated with varying concentrations of inhibitors at 37° C. After 30 min, FP-Rh (1.0 μL, 50 μM in DMSO) was added and the mixture was incubated for another 30 min at 37° C. Reactions were quenched with SDS loading buffer (50 μL—4×) and run on SDS-PAGE.

FAAH = biological target: T2, FAAH (Mus musculus, UniProt O08914); experiment: In vitro competitive activity-based protein profiling (FP-Rh), mouse FAAH; settings: Table 1, mouse proteome, 30 min preincubation at 37° C.
T2 sequence (O08914 1-579): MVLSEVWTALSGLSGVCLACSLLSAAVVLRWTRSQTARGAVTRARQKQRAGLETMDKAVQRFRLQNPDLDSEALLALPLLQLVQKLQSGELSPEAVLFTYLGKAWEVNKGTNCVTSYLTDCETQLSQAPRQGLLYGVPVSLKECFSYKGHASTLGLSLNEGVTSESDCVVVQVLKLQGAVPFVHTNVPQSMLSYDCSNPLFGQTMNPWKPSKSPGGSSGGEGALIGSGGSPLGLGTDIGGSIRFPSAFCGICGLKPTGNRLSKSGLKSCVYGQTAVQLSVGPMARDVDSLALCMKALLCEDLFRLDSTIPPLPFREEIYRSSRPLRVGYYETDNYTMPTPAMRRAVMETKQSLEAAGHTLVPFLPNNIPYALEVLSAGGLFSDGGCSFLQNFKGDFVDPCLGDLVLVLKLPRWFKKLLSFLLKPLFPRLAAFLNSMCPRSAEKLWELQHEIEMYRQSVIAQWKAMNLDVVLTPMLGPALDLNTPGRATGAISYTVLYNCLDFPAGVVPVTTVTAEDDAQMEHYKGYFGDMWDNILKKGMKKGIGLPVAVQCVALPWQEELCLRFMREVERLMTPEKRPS
Experimental: as §1, §2

MAGL = biological target: T3, MAGL (Mus musculus, UniProt O35678); experiment: In vitro competitive activity-based protein profiling (FP-Rh), mouse MAGL; settings: 30 min preincubation at 37° C.
T3 sequence (O35678 1-303): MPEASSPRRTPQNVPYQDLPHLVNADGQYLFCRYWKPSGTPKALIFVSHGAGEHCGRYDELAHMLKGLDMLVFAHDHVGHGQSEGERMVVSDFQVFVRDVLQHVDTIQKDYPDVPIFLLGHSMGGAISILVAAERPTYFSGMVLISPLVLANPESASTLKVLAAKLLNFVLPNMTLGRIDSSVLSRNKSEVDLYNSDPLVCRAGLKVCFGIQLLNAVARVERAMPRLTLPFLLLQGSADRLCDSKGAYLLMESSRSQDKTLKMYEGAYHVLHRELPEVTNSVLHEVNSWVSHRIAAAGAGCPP
Experimental: as §1, §2

SMILES | IC50 (ABHD6) | IC50 (FAAH) | IC50 (MAGL; Table 1, mouse proteome) | IC50 (MAGL; Table 2, mouse proteome)
O=C(ON1C(=O)CCC1=O)N1CCN(C(c2ccc(Cl)cc2)c2ccc(Cl)cc2)CC1 [Example 2, 2,5-Dioxopyrrolidin-1-yl 4-[bis(4-chlorophenyl)methyl]piperazine-1-carboxylate] | 100 to 1000 nM | > 10000 nM | – | –
O=C(NCCc1ccc(Oc2ccccc2)cc1)ON1C(=O)CCC1=O [Example 6, 2,5-Dioxopyrrolidin-1-yl N-[2-(4-phenoxyphenyl)ethyl]carbamate] | > 10000 nM | 100 to 1000 nM | > 10000 nM | –
CCN(Cc1ccccc1)C(=O)ON1C(=O)CCC1=O [Example 9, 2,5-Dioxopyrrolidin-1-yl N-benzyl-N-ethylcarbamate] | > 10000 nM | > 10000 nM | > 10000 nM | –
CN(Cc1cccc(-c2ccncc2)c1)C(=O)ON1C(=O)CCC1=O [Example 12, 2,5-Dioxopyrrolidin-1-yl N-methyl-N-{[3-(pyridin-4-yl)phenyl]methyl}carbamate] | 100 to 1000 nM | > 10000 nM | 1000 to 10000 nM | –
CN(Cc1cccc(-c2cccnc2)c1)C(=O)ON1C(=O)CCC1=O [Example 13, 2,5-Dioxopyrrolidin-1-yl N-methyl-N-{[3-(pyridin-3-yl)phenyl]methyl}carbamate] | > 10000 nM | > 10000 nM | > 10000 nM | –
Cc1nc(-c2cccc(CN(C)C(=O)ON3C(=O)CCC3=O)c2)no1 [Example 14, 2,5-Dioxopyrrolidin-1-yl N-methyl-N-{[3-(5-methyl-1,2,4-oxadiazol-3-yl)phenyl]methyl}carbamate] | 100 to 1000 nM | > 10000 nM | 1000 to 10000 nM | –
CN(CCc1ccccc1)C(=O)ON1C(=O)CCC1=O [Example 15, 2,5-Dioxopyrrolidin-1-yl N-methyl-N-(2-phenylethyl)carbamate] | > 10000 nM | > 10000 nM | > 10000 nM | –
O=C1CCC(=O)N1OC(=O)N1CCCCC1Cc1ccccc1 (centres unmarked) [Example 22, 2,5-Dioxopyrrolidin-1-yl 2-benzylpiperidine-1-carboxylate] | > 10000 nM | > 10000 nM | > 10000 nM | –
O=C(NCCc1ccc2ccccc2c1)ON1C(=O)CCC1=O [Example 27, 2,5-Dioxopyrrolidin-1-yl N-[2-(naphthalen-2-yl)ethyl]carbamate] | > 10000 nM | – | > 10000 nM | –
CN(C)C(=O)ON1C(=O)CNC1=O [Example 58, 2,5-Dioxoimidazolidin-1-yl dimethylcarbamate] | – | > 10000 nM | – | –
Cc1cc(N2CCOCC2)ccc1CN1CCN(C(=O)ON2C(=O)CCC2=O)CC1 [Example 63, 2,5-Dioxopyrrolidin-1-yl 4-(2-methyl-4-morpholinobenzyl)piperazine-1-carboxylate] | – | – | – | 1000 to 10000 nM
CC1CN(C(=O)ON2C(=O)CCC2=O)CCN1C(c1ccc(Cl)cc1)c1ccc(Cl)cc1 (centres unmarked) [Example 151, 2,5-Dioxopyrrolidin-1-yl 4-[bis(4-chlorophenyl)methyl]-3-methylpiperazine-1-carboxylate] | – | – | – | 100 to 1000 nM
CC1CN(C(=O)ON2C(=O)CCC2=O)CCN1Cc1ccc(-c2ccccc2)cc1 (centres unmarked) [Example 160, 2,5-Dioxopyrrolidin-1-yl 3-methyl-4-[(4-phenylphenyl)methyl]piperazine-1-carboxylate] | – | – | – | 100 to 1000 nM
O=C(ON1C(=O)CCC1=O)N1CCN(Cc2ccc(-c3ccccc3)cc2N2CCOCC2)CC1 [Example 161, 2,5-Dioxopyrrolidin-1-yl 4-((3-morpholino-[1,1′-biphenyl]-4-yl)methyl)piperazine-1-carboxylate] | – | – | – | 100 to 1000 nM

Next, values leading:

IC50 (ABHD6) | IC50 (FAAH) | IC50 (MAGL; Table 1, mouse proteome) | IC50 (MAGL; Table 2, mouse proteome) | SMILES
> 10000 nM | > 10000 nM | > 10000 nM | – | CC(C)(C)OC(=O)N1CCN(C(=O)ON2C(=O)CCC2=O)CC1 [Example 4, 1-tert-Butyl 4-(2,5-dioxopyrrolidin-1-yl) piperazine-1,4-dicarboxylate]
> 10000 nM | > 10000 nM | > 10000 nM | – | CC1CCCCN1C(=O)ON1C(=O)CCC1=O (centres unmarked) [Example 10, 2,5-Dioxopyrrolidin-1-yl 2-methylpiperidine-1-carboxylate]
> 10000 nM | > 10000 nM | > 10000 nM | – | O=C1CCC(=O)N1OC(=O)N1CCCCC1CO (centres unmarked) [Example 11, 2,5-Dioxopyrrolidin-1-yl 2-(hydroxymethyl)piperidine-1-carboxylate]
> 10000 nM | > 10000 nM | > 10000 nM | – | O=C(C1CCCCN1C(=O)ON1C(=O)CCC1=O)N1CCOCC1 (centres unmarked) [Example 16, 2,5-Dioxopyrrolidin-1-yl 2-(morpholine-4-carbonyl)piperidine-1-carboxylate]
– | > 10000 nM | > 10000 nM | – | O=C(ON1C(=O)CCC1=O)N1CCCCC1 [Example 17, 2,5-Dioxopyrrolidin-1-yl piperidine-1-carboxylate]
1000 to 10000 nM | > 10000 nM | 100 to 1000 nM | – | Cc1cc(N2CCN(C(=O)ON3C(=O)CCC3=O)CC2)c2ccccc2n1 [Example 18, 2,5-Dioxopyrrolidin-1-yl 4-(2-methylquinolin-4-yl)piperazine-1-carboxylate]
> 10000 nM | > 10000 nM | > 10000 nM | – | CCCN(Cc1ccc(N2CCCCC2)cc1)C(=O)ON1C(=O)CCC1=O [Example 19, 2,5-Dioxopyrrolidin-1-yl N-{[4-(piperidin-1-yl)phenyl]methyl}-N-propylcarbamate]
> 10000 nM | > 10000 nM | > 10000 nM | – | O=C(NC1CCCc2ccccc21)ON1C(=O)CCC1=O (centres unmarked) [Example 20, 2,5-Dioxopyrrolidin-1-yl N-(1,2,3,4-tetrahydronaphthalen-1-yl)carbamate]
100 to 1000 nM | 1000 to 10000 nM | 100 to 1000 nM | – | O=C(ON1C(=O)CCC1=O)N1CCC(Cc2ccccc2)CC1 [Example 21, 2,5-Dioxopyrrolidin-1-yl 4-benzylpiperidine-1-carboxylate]
> 10000 nM | > 10000 nM | > 10000 nM | – | O=C1CCC(=O)N1OC(=O)N1CCCCC1c1ccccc1 (centres unmarked) [Example 23, 2,5-Dioxopyrrolidin-1-yl 2-phenylpiperidine-1-carboxylate]
> 10000 nM | > 10000 nM | > 10000 nM | – | O=C1CCC(=O)N1OC(=O)N1CCCCC1C(F)(F)F (centres unmarked) [Example 24, 2,5-Dioxopyrrolidin-1-yl 2-(trifluoromethyl)piperidine-1-carboxylate]
> 10000 nM | > 10000 nM | > 10000 nM | – | O=C1CCC(=O)N1OC(=O)N1CCCCC1CCc1ccccc1 (centres unmarked) [Example 25, 2,5-Dioxopyrrolidin-1-yl 2-(2-phenylethyl)piperidine-1-carboxylate]
> 10000 nM | > 10000 nM | > 10000 nM | – | C#CCCC(=O)N1CCN(C(=O)ON2C(=O)CCC2=O)CC1 [Example 26, 2,5-Dioxopyrrolidin-1-yl 4-(pent-4-ynoyl)piperazine-1-carboxylate]
– | > 10000 nM | > 10000 nM | – | O=C(ON1C(=O)CCC1=O)N1CC[C@@H](OCc2ccccc2)C1 [Example 39, 2,5-Dioxopyrrolidin-1-yl (3R)-3-(benzyloxy)pyrrolidine-1-carboxylate]
– | > 10000 nM | > 10000 nM | – | O=C(ON1C(=O)CCC1=O)N1CC[C@H](OCc2ccccc2)C1 [Example 40, 2,5-Dioxopyrrolidin-1-yl (3S)-3-(benzyloxy)pyrrolidine-1-carboxylate]
– | – | – | 100 to 1000 nM | O=C(ON1C(=O)CCC1=O)N1CCN(Cc2ccc(Cl)cc2)CC1 [Example 64, 2,5-Dioxopyrrolidin-1-yl 4-(4-chlorobenzyl)piperazine-1-carboxylate]
– | – | – | < 100 nM | O=C(ON1C(=O)CCC1=O)N1CCN(Cc2ccc(Br)cc2N2CCCC2)CC1 [Example 72, 2,5-Dioxopyrrolidin-1-yl 4-(4-bromo-2-(pyrrolidin-1-yl)benzyl)piperazine-1-carboxylate]
